Source: patent US9403847B2, “Substituted heteroaryl fused derivatives as P13K inhibitors” (Incyte Corporation, priority 2009, dated 2016)
Counter-ions that a name gives are not always drawn.

Experiments:
PI3Kδ (p110δ/p85α) = biological target: T1, PI3Kδ (p110δ/p85α) (Homo sapiens, UniProt O00329); test: PI3Kδ scintillation proximity assay (enzyme assay A); type: biochemical; conditions: 20 μM PIP2, 20 μM ATP, 4 nM PI3Kδ, 210 minutes, room temperature; read-out: IC50 data for PI3Kδ enzyme assay A (PI3Kd Enzyme Assay A)
T1 construct: purchased Millipore (Bedford, Mass.)
Source text: Materials: [γ-^33P]ATP (10 mCi/mL) was purchased from PerkinElmer (Waltham, Mass.). Lipid kinase substrate, D-myo-Phosphatidylinositol 4,5-bisphosphate (PtdIns(4,5)P2)D (+)-sn-1,2-di-O-octanoylglyceryl, 3-O-phospho linked (PIP2), CAS 204858-53-7, was purchased from Echelon Biosciences (Salt Lake City, Utah). PI3Kδ (p110δ/p85α) was purchased from Millipore (Bedford, Mass.). ATP, MgCl2, DTT, EDTA, MOPS and CHAPS were purchased from Sigma-Aldrich (St. Louis, Mo.). Wheat Germ Agglutinin (WGA) YSi SPA Scintillation Beads was purchased from GE healthcare life sciences (Piscataway, N.J.).
Assay: The kinase reaction was conducted in polystyrene 384-well matrix white plate from Thermo Fisher Scientific in a final volume of 25 μL. Inhibitors were first diluted serially in DMSO and added to the plate wells before the addition of other reaction components. The final concentration of DMSO in the assay was 0.5%. The PI3K assays were carried out at room temperature in 20 mM MOPS, pH 6.7, 10 mM MgCl2, 5 mM DTT and CHAPS 0.03%. Reactions were initiated by the addition of ATP, the final reaction mixture consisted of 20 μM PIP2, 20 μM ATP, 0.2 μCi [γ-^33P] ATP, 4 nM PI3Kδ. Reactions were incubated for 210 minutes and terminated by the addition of 40 μL SPA beads suspended in quench buffer: 150 mM potassium phosphate pH 8.0, 20% glycerol. 25 mM EDTA, 400 μM ATP. The final concentration of SPA beads is 1.0 mg/mL. After the plate sealing, plates were shaken overnight at room temperature and centrifuged at 1800 rpm for 10 minutes, the radioactivity of the product was determined by scintillation counting on Topcount (PerkinElmer). IC50 determination was performed by fitting the curve of percent control activity versus the log of the inhibitor concentration using the GraphPad Prism 3.0 software.

B cells = test: B cell proliferation assay ([3H]-thymidine incorporation, anti-human IgM stimulation); type: cell-based; conditions: 72 h, purified human B cells, goat F(ab')2 anti-human IgM 10 μg/ml, three days plus 12 hrs [3H]-thymidine
Experimental: To acquire B cells, human PBMC were isolated from the peripheral blood of normal, drug free donors by standard density gradient centrifugation on Ficoll-Hypague (GE Healthcare, Piscataway, N.J.) and incubated with anti-CD19 microbeads (Miltenyi Biotech, Auburn, Calif.). The B cells were then purified by positive immunosorting using an autoMacs (Miltenyi Biotech) according to the manufacture's instruction.
The purified B cells (2×10^5/well/200 μL) were cultured in 96-well ultra-low binding plates (Corning, Corning, N.Y.) in RPMI1640, 10% FBS and goat F(ab′)2 anti-human IgM (10 μg/ml) (Invitrogen, Carlsbad, Calif.), in the presence of different amount of test compounds, for three days. [^3H]-thymidine (1 μCi/well) (PerkinElmer, Boston, Mass.) in PBS was then added to the B cell cultures for an additional 12 hrs before the incorporated radioactivity was separated by filtration with water through GF/B filters (Packard Bioscience, Meriden, Conn.) and measured by liquid scintillation counting with a TopCount (Packard Bioscience). […] See Table 2 for data related to compounds of the invention.

T1 sequence (O00329 whole entry): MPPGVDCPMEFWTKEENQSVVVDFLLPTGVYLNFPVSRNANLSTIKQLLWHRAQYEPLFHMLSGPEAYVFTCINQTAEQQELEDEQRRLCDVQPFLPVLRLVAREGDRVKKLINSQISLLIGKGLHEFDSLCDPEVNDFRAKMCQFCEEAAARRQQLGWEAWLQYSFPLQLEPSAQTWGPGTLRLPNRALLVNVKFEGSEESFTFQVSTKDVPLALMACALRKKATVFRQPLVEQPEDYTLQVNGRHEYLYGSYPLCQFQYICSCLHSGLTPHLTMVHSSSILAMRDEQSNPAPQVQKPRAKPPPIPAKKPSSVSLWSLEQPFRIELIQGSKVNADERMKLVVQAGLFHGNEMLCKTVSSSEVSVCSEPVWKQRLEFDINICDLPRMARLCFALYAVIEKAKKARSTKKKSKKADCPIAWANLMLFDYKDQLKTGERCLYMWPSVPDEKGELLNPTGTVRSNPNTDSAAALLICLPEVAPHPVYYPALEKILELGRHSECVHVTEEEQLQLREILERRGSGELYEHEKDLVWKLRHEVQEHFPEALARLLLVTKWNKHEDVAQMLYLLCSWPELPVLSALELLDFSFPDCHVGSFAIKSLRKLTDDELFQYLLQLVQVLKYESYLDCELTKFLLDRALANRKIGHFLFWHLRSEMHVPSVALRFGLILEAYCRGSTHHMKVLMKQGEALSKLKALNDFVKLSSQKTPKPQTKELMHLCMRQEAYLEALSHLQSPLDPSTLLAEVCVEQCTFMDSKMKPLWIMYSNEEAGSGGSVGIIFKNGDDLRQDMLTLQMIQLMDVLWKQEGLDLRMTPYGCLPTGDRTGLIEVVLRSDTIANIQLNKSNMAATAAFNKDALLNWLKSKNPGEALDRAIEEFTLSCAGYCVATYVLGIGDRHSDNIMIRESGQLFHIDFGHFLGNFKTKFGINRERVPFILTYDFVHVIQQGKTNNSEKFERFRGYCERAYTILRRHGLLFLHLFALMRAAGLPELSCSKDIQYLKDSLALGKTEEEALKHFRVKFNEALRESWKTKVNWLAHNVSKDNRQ
T1 sequence (P27986 whole entry partner): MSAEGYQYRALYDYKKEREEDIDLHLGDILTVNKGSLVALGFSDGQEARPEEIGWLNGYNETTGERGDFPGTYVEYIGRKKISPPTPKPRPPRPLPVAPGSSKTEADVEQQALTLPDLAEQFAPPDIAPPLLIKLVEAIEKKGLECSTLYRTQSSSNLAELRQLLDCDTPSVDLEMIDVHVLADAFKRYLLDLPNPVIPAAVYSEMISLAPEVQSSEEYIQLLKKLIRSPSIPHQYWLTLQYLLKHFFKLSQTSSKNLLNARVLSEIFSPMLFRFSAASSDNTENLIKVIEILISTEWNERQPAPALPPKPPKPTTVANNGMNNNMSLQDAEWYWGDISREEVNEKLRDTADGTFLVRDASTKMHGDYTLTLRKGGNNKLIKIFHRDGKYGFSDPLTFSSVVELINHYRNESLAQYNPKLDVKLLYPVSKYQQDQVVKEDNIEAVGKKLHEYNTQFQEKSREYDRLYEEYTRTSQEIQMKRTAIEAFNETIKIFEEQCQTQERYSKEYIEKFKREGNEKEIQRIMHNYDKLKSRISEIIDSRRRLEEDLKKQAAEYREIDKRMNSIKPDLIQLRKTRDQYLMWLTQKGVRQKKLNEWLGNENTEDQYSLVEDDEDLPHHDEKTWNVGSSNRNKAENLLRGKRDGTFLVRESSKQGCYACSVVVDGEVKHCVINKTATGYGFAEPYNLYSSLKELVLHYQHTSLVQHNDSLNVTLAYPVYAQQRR

| IC50 (PI3Kδ (p110δ/p85α)) | SMILES | IC50 (B cells) |
| --- | --- | --- |
| < 200 nM | Cc1cccc2nc(C(C)Nc3ncnc4[nH]cnc34)c(-c3cc(F)cc(F)c3)n12 (stereo not shown) [Example 1, N-{1-[3-(3,5-Difluorophenyl)-5-methylimidazo[1,2-a]pyridin-2-yl]ethyl}-9H-purin-6-amine] | < 500 nM |
| < 200 nM | CC(Nc1ncnc2[nH]cnc12)c1nc2ccccn2c1-c1cccc(F)c1 (stereo not shown) [Example 2, N-{1-[3-(3-Fluorophenyl)imidazo[1,2-a]pyridin-2-yl]ethyl}-9H-purin-6-amine] | < 500 nM |
| > 2000 nM | CC(Nc1ncnc2[nH]cnc12)c1nc2sccn2c1-c1cc(F)cc(F)c1 (stereo not shown) [Example 3, N-{1-[5-(3,5-Difluorophenyl)imidazo[2,1-b][1,3]thiazol-6-yl]ethyl}-9H-purin-6-amine bis(trifluoroacetate)] |  |
| > 2000 nM | Cc1cn2c(-c3cccc(F)c3)c(C(C)Nc3ncnc4[nH]cnc34)nc2s1 (stereo not shown) [Example 5, N-{1-[5-(3-Fluorophenyl)-2-methylimidazo[2,1-b][1,3]thiazol-6-yl]ethyl}-9H-purin-6-amine] | 2500 to 5000 nM |
| > 2000 nM | Cc1ccn2c(-c3cccc(F)c3)c(C(C)Nc3ncnc4[nH]cnc34)nc2c1 (stereo not shown) [Example 9, N-{1-[3-(3-Fluorophenyl)-7-methylimidazo[1,2-a]pyridin-2-yl]ethyl}-9H-purin-6-amine bis(trifluoroacetate)] | > 5000 nM |
| < 200 nM | CC(Nc1ncnc2[nH]cnc12)c1nc2cc(Cl)ccn2c1-c1cccc(F)c1 (stereo not shown) [Example 13, N-{1-[7-Chloro-3-(3-fluorophenyl)imidazo[1,2-a]pyridin-2-yl]ethyl}-9H-purin-6-amine] |  |
| < 200 nM | CC(Nc1ncnc2[nH]cnc12)c1nc2c(F)cccn2c1-c1cccc(F)c1 (stereo not shown) [Example 14, N-{1-[8-Fluoro-3-(3-fluorophenyl)imidazo[1,2-a]pyridin-2-yl]ethyl}-9H-purin-6-amine] | 500 to 1000 nM |
| 990 to 2000 nM | CC(Nc1ncnc2[nH]cnc12)c1nc2c(C(F)(F)F)cccn2c1-c1cccc(F)c1 (stereo not shown) [Example 15, N-{1-[3-(3-Fluorophenyl)-8-(trifluoromethyl)imidazo[1,2-a]pyridin-2-yl]ethyl}-9H-purin-6-amine bis(trifluoroacetate)] |  |
| 990 to 2000 nM | CC(Nc1ncnc2[nH]cnc12)c1nc2c(C#N)cccn2c1-c1cccc(F)c1 (stereo not shown) [Example 16, 3-(3-Fluorophenyl)-2-[1-(9H-purin-6-ylamino)ethyl]imidazo[1,2-a]pyridine-8-carbonitrile bis(trifluoroacetate)] |  |
| 500 to 990 nM | Cc1ccc(-c2c(C(C)Nc3ncnc4[nH]cnc34)nc3ccccn23)cc1 (stereo not shown) [Example 17, N-{1-[3-(4-Methylphenyl)imidazo[1,2-a]pyridin-2-yl]ethyl}-9H-purin-6-amine] |  |
| 200 to 500 nM | CC(Nc1ncnc2[nH]cnc12)c1nc2ccccn2c1-c1cccc(F)c1F (stereo not shown) [Example 18, N-{1-[3-(2,3-Difluorophenyl)imidazo[1,2-a]pyridin-2-yl]ethyl}-9H-purin-6-amine] | 1000 to 2500 nM |
| 200 to 500 nM | CC(Nc1ncnc2[nH]cnc12)c1nc2ccccn2c1-c1ccccc1F (stereo not shown) [Example 19, N-{1-[3-(2-Fluorophenyl)imidazo[1,2-a]pyridin-2-yl]ethyl}-9H-purin-6-amine] | < 500 nM |
| 990 to 2000 nM | Cc1ccccc1-c1c(C(C)Nc2ncnc3[nH]cnc23)nc2ccccn12 (stereo not shown) [Example 20, N-{1-[3-(2-Methylphenyl)imidazo[1,2-a]pyridin-2-yl]ethyl}-9H-purin-6-amine] |  |
| < 200 nM | CC(Nc1ncnc2[nH]cnc12)c1nc2ccccn2c1-c1cc(F)ccc1F (stereo not shown) [Example 21, N-{1-[3-(2,5-Difluorophenyl)imidazo[1,2-a]pyridin-2-yl]ethyl}-9H-purin-6-amine] | 2500 to 5000 nM |
| 500 to 990 nM | Cc1cccc(-c2c(C(C)Nc3ncnc4[nH]cnc34)nc3ccccn23)c1 (stereo not shown) [Example 22, N-{1-[3-(3-Methylphenyl)imidazo[1,2-a]pyridin-2-yl]ethyl}-9H-purin-6-amine] |  |
| 200 to 500 nM | CC(Nc1ncnc2[nH]cnc12)c1nc2ccccn2c1-c1cc(F)cc(F)c1 (stereo not shown) [Example 23, N-{1-[3-(3,5-Difluorophenyl)imidazo[1,2-a]pyridin-2-yl]ethyl}-9H-purin-6-amine] | 1000 to 2500 nM |
| 990 to 2000 nM | CC(Nc1ncnc2[nH]cnc12)c1nc2ccccn2c1-c1ccc(F)cc1 (stereo not shown) [Example 24, N-{1-[3-(4-Fluorophenyl)imidazo[1,2-a]pyridin-2-yl]ethyl}-9H-purin-6-amine] |  |

| SMILES | IC50 (PI3Kδ (p110δ/p85α)) | IC50 (B cells) |
| --- | --- | --- |
| Cc1csc2nc(C(C)Nc3ncnc4[nH]cnc34)c(-c3cccc(F)c3)n12 (stereo not shown) [Example 4, N-{1-[5-(3-Fluorophenyl)-3-methylimidazo[2,1-b][1,3]thiazol-6-yl]ethyl}-9H-purin-6-amine bis(trifluoroacetate)] | 500 to 990 nM | 1000 to 2500 nM |
| CC(Nc1ncnc2[nH]cnc12)c1nc2ccc(Cl)cn2c1-c1cccc(F)c1 (stereo not shown) [Example 6, N-{1-[6-Chloro-3-(3-fluorophenyl)imidazo[1,2-a]pyridin-2-yl]ethyl}-9H-purin-6-amine bis(trifluoroacetate)] | < 200 nM | < 500 nM |
| CC(Nc1ncnc2[nH]cnc12)c1nc2cccc(Cl)n2c1-c1cccc(F)c1 (stereo not shown) [Example 7, N-{1-[5-Chloro-3-(3-fluorophenyl)imidazo[1,2-a]pyridin-2-yl]ethyl}-9H-purin-6-amine tris(trifluoroacetate)] | < 200 nM | < 500 nM |
| Cc1ccc2nc(C(C)Nc3ncnc4[nH]cnc34)c(-c3cccc(F)c3)n2c1 (stereo not shown) [Example 8, N-{1-[3-(3-Fluorophenyl)-6-methylimidazo[1,2-a]pyridin-2-yl]ethyl}-9H-purin-6-amine bis(trifluoroacetate)] | 500 to 990 nM | 1000 to 2500 nM |
| Cc1cccn2c(-c3cccc(F)c3)c(C(C)Nc3ncnc4[nH]cnc34)nc12 (stereo not shown) [Example 10, N-{1-[3-(3-Fluorophenyl)-8-methylimidazo[1,2-a]pyridin-2-yl]ethyl}-9H-purin-6-amine bis(trifluoroacetate)] | < 200 nM | < 500 nM |
| CC(Nc1ncnc2[nH]cnc12)c1nc2c(Cl)cccn2c1-c1cccc(F)c1 (stereo not shown) [Example 11, N-{1-[8-Chloro-3-(3-fluorophenyl)imidazo[1,2-a]pyridin-2-yl]ethyl}-9H-purin-6-amine bis(trifluoroacetate)] | < 200 nM | 500 to 1000 nM |
| CC(Nc1ncnc2[nH]cnc12)c1nn2ccccc2c1-c1cc(F)cc(F)c1 (stereo not shown) [Example 25, N-{1-[3-(3,5-Difluorophenyl)pyrazolo[1,5-a]pyridin-2-yl]ethyl}-9H-purin-6-amine trifluoroacetate] | < 200 nM | 500 to 1000 nM |
